Assays:
mCRPC patients [1] = details: at 3 months; cited from earlier work
[2] = test system: patients with mCRPC who progressed during or after docetaxel; details: every 3 weeks with prednisone 10 mg daily; cabazitaxel 25 mg/m^2, mitoxantrone 12 mg/m^2; cited from earlier work
mCRPC patients [3] = details: 3 months; cited from earlier work
[4] = test system: mCRPC patients, safety population; assay: Same clinical study: safety (adverse events, laboratory abnormalities, dose reductions); type: in vivo, human; details: human, in vivo
Experimental: For patients in Arm A, cabazitaxel 25 mg/m^2 was administered intravenously over 1 hour every 3 weeks along with oral prednisone 10 mg given daily. Primary prophylactic granulocyte-colony stimulating factor (G-CSF) was required at each cycle for all patients in the cabazitaxel arm
For patients in Arm B, abiraterone acetate was administered orally at 1000 mg once daily along with oral prednisone 5 mg given twice daily or enzalutamide was administered orally at 160 mg once daily continuously. Abiraterone acetate was administered to patients who had received enzalutamide prior to study entry. Enzalutamide was administered to patients who received prior abiraterone acetate.
Cabazitaxel 25 mg/m^2, was administered intravenously over 1 hour every 3 weeks with oral prednisone 10 mg daily. Premedication included an antihistamine, glucocorticoid (dexamethasone 8 mg or equivalent), and histamine 2 receptor antagonist. Antiemetic prophylaxis was administered at physician's discretion. Primary prophylactic granulocyte-colony stimulating factor was required during each cycle of cabazitaxel. Patients received either abiraterone acetate (1000 mg orally once daily and oral prednisone 5 mg twice daily) or enzalutamide (160 mg orally once daily) continuously. A treatment cycle was 3 weeks in both arms. Abiraterone acetate was given to patients who previously received enzalutamide before study entry. Enzalutamide was given to patients who previously received abiraterone acetate.
Up to a maximum of 2 dose reductions was allowed per patient when necessary due to toxicity and according to the table below:
Efficacy analysis used all randomized patients. Stratified log-rank tests were used to analyze time-to-event data. The primary analysis compared radiographic progression-free survival between the two treatment groups using a stratified log-rank test. Survival curves were generated using Kaplan-Meier estimates. Hazard ratios and associated 95% confidence intervals [CI] were estimated using a stratified Cox proportional hazards model. Stratified Cochran-Mantel-Haenszel chi-square tests were used to analyze categorical data. Descriptive statistics were used to summarize patient characteristics. The safety population (randomized patients who received at least one dose of study treatment) was used for all safety analyses.

SMILES: CNC(=O)c1ccc(N2C(=S)N(c3ccc(C#N)c(C(F)(F)F)c3)C(=O)C2(C)C)cc1F [enzalutamide, 4-{3-[4-cyano-3-(trifluoromethyl)phenyl]-5,5-dimethyl-4-oxo-2-sulfanylideneimidazolidin-1-yl}-2-fluoro-N-methylbenzamide]
- Patients with imaging-based progression (mCRPC patients [1]): about 25%

SMILES: O=C1c2c(O)ccc(O)c2C(=O)c2c(NCCNCCO)ccc(NCCNCCO)c21 [mitoxantrone]
- Median overall survival, TROPIC trial [2]: 12.7 months

SMILES: CC(=O)O[C@H]1CC[C@@]2(C)C(=CC[C@@H]3[C@@H]2CC[C@]2(C)C(c4cccnc4)=CC[C@@H]32)C1 [abiraterone acetate, (3β)-17-(3-pyridinyl) androsta-5,16-dien-3-yl acetate]
- Patients with primary resistance, imaging-based progression at the first visit (mCRPC patients [3]): about 30%
- At least one dose reduction required [4]: 17 patients

Source: patent US20210244704A1, “Cabazitaxel in mCRPC Patients Previously Treated with Docetaxel and Who Failed a Prior androgen signaling targeted inhibitor Agent” (SANOFI MATURE IP, priority 2019, published 2021)
